The results in this text go back to article PMC6801448, “The Antioxidant and Antiproliferative Activities of 1,2,3-Triazolyl-L-Ascorbic Acid Derivatives” (International Journal of Molecular Sciences, 2019).

Entries after “also recorded” stand apart in the source; their conditions may differ.

One data set has as its system MCF-7 cells. Description: Annexin V apoptosis detection assay. Format: cell-based, Human. The procedure:
A total of 2 × 10^4 MCF-7 cells were seeded into 8-well Nunc Lab-Tek II Chamber Slide system (Thermo Fischer Scientific, Waltham, MA, USA), and treated with compound 4e at 1 × IC50 and 2 × IC50 for 24 and 48 h. The assay (Annexin-V-FLUOS Staining kit, Roche Applied Science, Penzberg, Germany) was preformed according to the manufacturer protocol. Slides were analyzed by fluorescence microscopy (Zeiss Axio Observer Z1 Inverted Phase Contrast Fluorescent Microscope, Jena, Germany)).

Data set [1] relates to MCF-7 (breast adenocarcinoma). The data set is described as follows: MTT proliferation assay, MCF-7. Format: cell-based, Human. To be noted: for IC50: Homo sapiens, MCF7, 72 h, MTT. The essentials:
(§1)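 5000 cells/well, DMEM + 10% FBS; compound added at 24 h, 0.01–100 μM, 72 h, 37 °C/5% CO2. MTT 3 h, DMSO, OD 570 nm → % growth (NIH protocol) → IC50 by regression.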
For orientation: Tetrazolium assays rely on reduction of a dye to a coloured formazan, in cell work by metabolically active cells.

The test system of the next data set is HFF-1 cells. The data set is described as follows: Seahorse XF Cell Mito Stress Test, HFF-1. To be noted: HFF-1, 24 h. Format: cell-based, Human. As for the experimental part:
The Seahorse XF Cell Mito Stress Test was used for measurements of mitochondrial respiration by direct assessment of the oxygen consumption rate (OCR), of treated and untreated cells on the Seahorse XFe24 Analyzer, (Agilent, Santa Clara, CA, USA). Key parameters of the mitochondrial function were measured by direct assessment of the OCR, by use of the Mito Stress Test (Agilent, Agilent, Santa Clara, CA, USA). The Mito Stress Test uses modulators of respiration that target components of the electron transport chain in the mitochondria. The compounds added to the reaction were: oligomycin, mitochondrial oxidative phosphorylation uncoupler carbonyl cyanide-4-(trifluoromethoxy)phenylhydrazone (FCCP), and the mix of rotenone and antymicin A. These were directly injected to the cell growth medium containing cells treated with selected L-ASA derivatives to determine the production of ATP, respiration at maximal level, and the non-mitochondrial respiration. Measured parameters were used for calculation of the proton leakage, spare respiratory capacity, and basal respiration. The assay was performed according to the manufacturer’s instructions (SeaHorse—Mito Stress Test: Agilent, Santa Clara, CA, USA). Briefly, selected compound 4e was tested due to its selective antiproliferative effect on MCF-7 cells. MCF-7 cells were treated for 24 h with compound 4e at 3 different concentrations (at 12.72 µM, 25.44 µM and 50.88 µM) while the cells HFF-1 were treated for 24 h with compound 4e at concentrations 50 µM, 100 µM, and 200 µM. […] The experiment was performed with biological duplicates.

The test system of data set [2] is CFPAC-1 (ductal pancreatic adenocarcinoma). The data set is described as follows: MTT proliferation assay, CFPAC-1. Type of data set: cell-based. To be noted: Homo sapiens, 72 h. The essentials:
as §1

Data set [3] deals with HCT-116 (colorectal carcinoma). Description: MTT proliferation assay, HCT-116. Format: cell-based. The settings on record: Homo sapiens, 72 h. An outline of the steps: as §1
In data set [4] the test system is HeLa (cervical carcinoma). The data set is described as follows: MTT proliferation assay, HeLa. Format: cell-based. The settings on record: Homo sapiens, 72 h. An outline of the steps: as §1
The subject of a further data set is WI-38 (lung fibroblasts). Description: MTT proliferation assay, WI-38. Format: cell-based. The settings on record: Homo sapiens, 72 h, normal lung fibroblasts. An outline of the steps:
as §1

The mark [5] stands for this setting: MCF-7, 24 h, 6.72 µM (1 × IC50).
Where [6] appears, read: MCF-7, 24 h, 13.44 µM (2 × IC50).
Setting [7] is: MCF-7, 24 h, 1 × IC50, versus untreated cells.
Where [8] appears, read: MCF-7, 48 h, 6.72 µM (1 × IC50).
Setting [9] is: MCF-7, 48 h, 13.44 µM (2 × IC50).

As a reminder, the IC50 is the concentration that inhibits the measured activity by half. A low value points to higher potency. In the case of `O=C1O[C@H]([C@@H](O)Cn2cc(-c3ccc(Br)cc3)nn2)C(O)=C1O` [Compound 4e, 6-[4-(4-bromophenyl)-1,2,3-triazol-1-yl]-6-deoxy-L-ascorbic acid], the “Early Apoptosis (%)” value is on record as 30.6% in the data set with MCF-7 cells (setting [5]), 5.3% in the data set with MCF-7 cells (setting [6]), 46.6% in the data set with MCF-7 cells (setting [8]) and 9.1% in the data set with MCF-7 cells (setting [9]). The “Late Apoptosis (%)” value in the data set on MCF-7 cells (setting [5]) was 6.4%; in the data set on MCF-7 cells (setting [6]) it was 38.1%; in the data set with MCF-7 cells (setting [8]), 4.2%; in the data set on MCF-7 cells (setting [9]), 2.3%. In addition, the “Necrosis (%)” value in the data set on MCF-7 cells (setting [5]) worked out at 0.8%; with MCF-7 cells (setting [6]), 15.9%; with MCF-7 cells (setting [8]), 0.8%; in the data set on MCF-7 cells (setting [9]), 0%. Further, the “increase in early apoptotic cell population” value in the data set with MCF-7 cells (setting [7]) was 12.4%. In the data set on MCF-7 cells (setting [7]), the “increase in late apoptotic cell population” value came to 2.0%. In addition, the “percentage of cells in early apoptosis higher than in untreated cells” value with MCF-7 cells (MCF-7, 48 h, 1 × IC50, versus untreated cells) came to 35.2%. Moreover, the IC50 was 6.72 µM in data set [1]; over 100 µM in data set [2]; over 100 µM in data set [3]; over 100 µM in data set [4]; 73.9 µM in the data set on WI-38 (lung fibroblasts). Also, the “selectivity index, SI” value in data set [1] (WI-38 versus MCF-7) was found to be 11. In addition, the “basal cell respiration and ATP production” value with HFF-1 cells was “did not affect the basal cell respiration or ATP production; also recorded: did not affect the basal cell respiration and ATP production”. Besides, the “cellular metabolism and mitochondrial activity” value in the data set on HFF-1 cells (100 µM) is “slightly positive effect”.

For the compound `O=C1O[C@H]([C@@H](O)CO)C(O)=C1O` [L-ASA, L-ascorbic acid], the IC50 in data set [1], in data set [2], in data set [3] and in data set [4] was over 100 µM each time. In the data set on HFF-1 cells (higher concentrations), the “decrease of basal cell respiration and ATP production, switch towards non-mitochondrial respiration” value is listed as “this effect was not observed”.
